Values joined by “and” are separate entries in the source; they are usually repeats but may differ in a detail not shown here. Identical values can stand only once.
System: metastatic colon cancer patients
Test: Overall survival of metastatic colon cancer patients treated with 5-FU-based chemotherapy, by gender and EGFR genotype
Assay type: in vivo, human
Details: for RR (95% CI): relative risk
Text: A total of 318 patients with metastatic colon cancer treated at the University of Southern California/Norris Comprehensive Cancer Center (USC/NCCC) or the Los Angeles County/University of Southern California Medical Center (LAC/USCMC), between 1992 and 2003, were eligible for the present study. This population included only metastatic or recurrent colon cancer patients. All patients in this study signed informed consents and enrolled in protocols designed to study the molecular determinants of colon cancer. These protocols permitted blood collection (USC protocol OS-99-10) and/or tissue collection (USC protocol 0S-00-15).
All patients were entered and followed in an institutional database. Patient information was collected through database review and retrospective chart review when additional patient information was necessary. A large number of the patients (69%) were initially treated at an outside institution until, because of failure to respond to prior treatment, they were referred to USC/NCCC or LAC/USCMC for subsequent treatments. The end point of this study, OS, was determined by calculating the difference between the date of first treatment at USC/NCCC or LAC/USC and the date of last follow-up appointment or date of death from disease.
All 318 patients were enrolled in at least one chemotherapy clinical trial while being treated at this institution (USC/NCCC or LAC/USCMC). All patients were treated with 5-fluorouracil (5-FU)-based chemotherapy regimens, and response to chemotherapy was not investigated as an end point for this study. This is a heavily pretreated cohort with 20 (6%) patients treated with one line of chemotherapy, 19 (6%) patients treated with two different chemotherapy regimens, 183 (58%) patients treated with three chemotherapy regimens, and 96 (30%) patients treated with four or more chemotherapy regimens. […] All 318 patients received treatment with 5-FU, 298 (94%) patients received treatment with 5-FU/irinotecan (CPT-11), and 279 (88%) patients received treatment with 5-FU/oxaliplatin.
The primary end point of this study is OS. The OS was determined by calculating the difference between the date of first treatment at USC/NCCC or LAC/USC and the date of last follow-up appointment or date of death. Patients who were alive at the last follow-up were censored at that time.
The associations between sex and other demographic and clinical characteristics were examined using contingency tables and the Fisher exact test. The dominant code for HER-1 R497K was used for the association with OS, and patients who carried heterozygous (Arg/Lys) and homozygous mutant genotypes (Lys/Lys) were grouped together. EGFR intron 1 (CA)n repeat polymorphism was categorized into two groups: both alleles with <20 (CA)n (SEQ ID NO: 3) and any alleles with ≧20 (CA)n (SEQ ID NO: 4) as described previously (19). The associations of HER-1 R497K and EGFR intron 1 (CA)n repeat polymorphisms with OS were analyzed individually using Kaplan-Meier plots and the log-rank test. The independent effects of two EGFR polymorphisms on OS were examined in multivariable analysis using Cox proportional hazards model. Interactions between sex and EGFR polymorphisms were examined using stratified models and were tested by comparing corresponding likelihood ratio statistics between the baseline and nested Cox proportional hazards models that included the multiplicative product terms (20).

In the case of O=c1[nH]cc(F)c(=O)[nH]1 [5-FU, 5-fluorouracil], the “Median survival (95% CI)” value (female, EGFR intron 1 any (CA)n repeats ≧20) is reported as 14.1 mo and 14.1 (12.1-18.3) mo, the “Median survival (95% CI)” value (female, EGFR intron 1 both (CA)n repeats <20) is reported as 17.6 mo and 17.9 mo and 17.6 (13.7-22.7) mo and the “Median survival (95% CI)” value (female, HER-1 R497K Arg/Arg, 5-FU-based chemotherapy regimens) is reported as 16.0 (13.5-19.2) mo. For the same compound, the “Median survival (95% CI)” value (female, HER-1 R497K Lys allele (Arg/Lys or Lys/Lys)) was 14.0 (11.2-17.9) mo, the “Median survival (95% CI)” value (female, combined: Arg/Arg and (CA)n <20) was 15.7 (11.5-41.4) mo and the “Median survival (95% CI)” value (female, combined: Arg/Arg and (CA)n ≧20 or Lys and (CA)n <20) was 17.3 (14.0-19.2) mo. For the same compound, the “Median survival (95% CI)” value (female, combined: Lys and (CA)n ≧20) was 12.2 (7.7-16.7) mo, the “RR (95% CI)” value (female, Arg/Arg and (CA)n ≧20 or Lys and (CA)n <20 vs Arg/Arg and (CA)n <20 (reference)) was 0.93 (0.56-1.54) and the “RR (95% CI)” value (female, Lys allele vs Arg/Arg (reference), Cox model) was 1.41 (0.94-2.10). For the same compound, the “RR (95% CI)” value (female, Lys and (CA)n ≧20 vs Arg/Arg and (CA)n <20 (reference)) was 1.90 (1.10-3.29), the “RR (95% CI)” value (female, any (CA)n ≧20 vs both <20 (reference)) was 1.37 (0.93-2.01) and the “Median survival (95% CI)” value (male, EGFR intron 1 any (CA)n repeats ≧20) was 13.1 mo and 13.1 (10.7-16.0) mo. The “Median survival (95% CI)” value (male, EGFR intron 1 both (CA)n repeats <20) was 10.3 mo and 10.4 mo and 10.3 (8.3-15.5) mo, the “Median survival (95% CI)” value (male, HER-1 R497K Arg/Arg, 5-FU-based chemotherapy regimens) was 10.3 (9.0-13.5) mo and the “Median survival (95% CI)” value (male, HER-1 R497K Lys allele (Arg/Lys or Lys/Lys)) was 13.7 (10.8-19.1) mo. For the same compound, the “Median survival (95% CI)” value (male, combined: Arg/Arg and (CA)n <20) was 8.9 (7.3-11.4) mo, the “Median survival (95% CI)” value (male, combined: Arg/Arg and (CA)n ≧20 or Lys and (CA)n <20) was 13.1 (10.3-17.5) mo and the “Median survival (95% CI)” value (male, combined: Lys and (CA)n ≧20) was 13.6 (10.7-19.5) mo. The “RR (95% CI)” value (male, Arg/Arg and (CA)n ≧20 or Lys and (CA)n <20 vs Arg/Arg and (CA)n <20 (reference)) was 0.84 (0.57-1.25), the “RR (95% CI)” value (male, Lys allele vs Arg/Arg (reference), Cox model) was 0.64 (0.46-0.89) and the “RR (95% CI)” value (male, Lys and (CA)n ≧20 vs Arg/Arg and (CA)n <20 (reference)) was 0.62 (0.39-0.97). For the same compound, the “RR (95% CI)” value (male, any (CA)n ≧20 vs both <20 (reference)) was 0.92 (0.67-1.28).

Source: US8568968B2, “EGFR polymorphisms predict gender-related treatment” (University of Southern California, priority 2009, dated 2013)
